Converted amounts (≈) assume the structure as drawn.
Tests used:
A. baumannii DH-243 [1] = test: Agar well-diffusion assay; assay type: cell-based; details: Acinetobacter baumannii, DH243; A. baumannii DH-243; 50 µL of 10 mM per well; read-out: Diameter of Inhibition Zones (AZOI)
Description: (§1) The synthesized compounds were initially screened for their in vitro antibacterial activity against the different Gram-positive and Gram-negative bacteria, tested using the agar well-diffusion assay. The turbidity of the bacterial suspensions was established to the 0.5 McFarland turbidity standard. The activity was performed on TS agar plates. The bacteria were spread on the surface of the agar plates, and 10 mm wells were screwed into the agar plates. The assay was performed under aseptic conditions. An aliquot of 50 µL of each tested compound (10 mM) was added to the wells, and the plates were incubated overnight at 37 °C. Both Erythromycin and Amikacin antibiotic disks were used as positive control, while DMSO solvent was used as a negative control in this study. The diameters of inhibition zones were measured and recorded in mm. A comparative study of the synthesized compounds was determined. The experiment was performed in triplicates.

E. coli DH-5987 [2] = test: Agar well-diffusion assay; assay type: cell-based; details: Escherichia coli, DH5987, 50 µL of 10 mM per well, read-out: Diameter of Inhibition Zones (AZOI)
Description: as §1

E. faecalis DH-5478 [3] = test: Agar well-diffusion assay; assay type: cell-based; details: Enterococcus faecalis, DH5478; E. faecalis DH-5478; 50 µL of 10 mM per well; read-out: Diameter of Inhibition Zones (AZOI)
Description: as §1

S. aureus DH-432 [4] = test: Agar well-diffusion assay; assay type: cell-based; details: Staphylococcus aureus, DH432; S. aureus DH-432; 50 µL of 10 mM per well; read-out: Diameter of Inhibition Zones (AZOI)
Description: as §1

S. pyogenes DH-3467 [5] = test: Agar well-diffusion assay; assay type: cell-based; details: Streptococcus pyogenes, DH3467; S. pyogenes DH-3467; 50 µL of 10 mM per well; read-out: Diameter of Inhibition Zones (AZOI)
Description: as §1

P. aeruginosa DH-5698 [6] = test: Agar well-diffusion assay; assay type: cell-based, Pseudomonus aeruginosa; details: Pseudomonas aeruginosa, DH5698; P. aeruginosa DH-5698; 50 µL of 10 mM per well; read-out: Diameter of Inhibition Zones (AZOI)
Description: as §1

E. faecalis DH-5478 [7] = test: Broth microdilution MIC/MBC; assay type: cell-based, Enterococcus faecalis; details: for MIC: Enterococcus faecalis, DH5478, 24 h, read-out: MIC (Mean ± SEM); for MBC/MIC: value in brackets
Description: (§2) The broth microdilution method was taken as a basis to detect the MICs of pyrazole compounds against tested clinical isolates, according to the Clinical Laboratory and Standards Institute guidelines. The broth cultures were used to prepare the bacterial inoculums, and the suspensions were adjusted to the standard 0.5 McFarland turbidity. Stock solutions of the synthesized pyrazoles were prepared in pure DMSO and further serially diluted with TS broth in the concentration range from 128 µg/mL to 0.0625 µg/mL. A well containing noninoculated TS broth, free of any antimicrobial agents, was also included to ensure the medium sterility, while Erythromycin and Amikacin served as positive controls. Bacterial growth was determined by adding 20 µL of 0.5% TTC (2,3,5-triphenyltetrazolium chloride) aqueous solution. […] All experiments were repeated three times. The bactericidal effect from each concentration of the pyrazole and pyrazolo[1,5-a]pyrimidine derivatives showing growth inhibition was further studied. For this study, a loopful of 5 µL was taken from each no-visible growth tube and streaked onto plates of TS agar.

S. aureus DH-432 [8] = test: Broth microdilution MIC/MBC; assay type: cell-based, Staphylococcus aureus; details: for MIC: Staphylococcus aureus, DH432, 24 h, read-out: MIC (Mean ± SEM); for MBC/MIC: value in brackets
Description: as §2

S. pyogenes DH-3467 [9] = test: Broth microdilution MIC/MBC; assay type: cell-based, Streptococcus pyogenes; details: for MIC: Streptococcus pyogenes, DH3467, 24 h, read-out: MIC (Mean ± SEM); for MBC/MIC: value in brackets
Description: as §2

A. baumannii DH-243 [10] = test: Broth microdilution MIC/MBC; assay type: cell-based, Acinetobacter baumannii; details: for MIC: Acinetobacter baumannii, DH243, 24 h, read-out: MIC (Mean ± SEM); for MBC/MIC: value in brackets
Description: as §2

E. coli DH-5987 [11] = test: Broth microdilution MIC/MBC; assay type: cell-based, Escherichia coli; details: E. coli DH-5987; for MBC/MIC: value in brackets; for MIC: Escherichia coli, DH5987, 24 h, read-out: MIC (Mean ± SEM)
Description: as §2

P. aeruginosa DH-5698 [12] = test: Broth microdilution MIC/MBC; assay type: cell-based, Pseudomonus aeruginosa; details: for MIC: Pseudomonas aeruginosa, DH5698, 24 h, read-out: MIC (Mean ± SEM); for MBC/MIC: value in brackets
Description: as §2

Compound	zone of inhibition at 10000 µM (A. baumannii DH-243 [1]) [mm]	zone of inhibition at 10000 µM (E. coli DH-5987 [2]) [mm]	zone of inhibition at 10000 µM (E. faecalis DH-5478 [3]) [mm]	zone of inhibition at 10000 µM (S. aureus DH-432 [4]) [mm]	zone of inhibition at 10000 µM (S. pyogenes DH-3467 [5]) [mm]	zone of inhibition at 10000 µM (P. aeruginosa DH-5698 [6]) [mm]	MIC (E. faecalis DH-5478 [7]) [µg/mL]	MBC/MIC (E. faecalis DH-5478 [7])	MIC (S. aureus DH-432 [8]) [µg/mL]	MBC/MIC (S. aureus DH-432 [8])	MIC (S. pyogenes DH-3467 [9]) [µg/mL]	MBC/MIC (S. pyogenes DH-3467 [9])	MIC (A. baumannii DH-243 [10]) [µg/mL]	MBC/MIC (A. baumannii DH-243 [10])	MBC/MIC (E. coli DH-5987 [11])	MIC (E. coli DH-5987 [11]) [µg/mL]	MIC (P. aeruginosa DH-5698 [12]) [µg/mL]	MBC/MIC (P. aeruginosa DH-5698 [12])	melting point [°C]
CCOC(=O)c1ccc(N=Nc2c(N=Cc3ccc(OC)cc3)n[nH]c2N)cc1 [Compound 5b, Ethyl-4-((5-amino-3-((4-methoxybenzylidene)amino)-1H-pyrazol-4-yl)diazenyl)benzoate]	23.4	25.7	25.4	26.2	24.1	24.7	1.5 ± 0.3 (≈ 3.82 µM)	1	1 ± 0.3 (≈ 2.55 µM)	1	1 ± 0.2 (≈ 2.55 µM)	1	2 ± 0.1 (≈ 5.1 µM)	0.5	0.5	1 ± 0.2 (≈ 2.55 µM)	2 ± 0.3 (≈ 5.1 µM)	1	210 to 212
CCOC(=O)c1ccc(N=Nc2c(N)nn3c2N=C(C)CC3=O)cc1 [Compound 7, ethyl 4-((2-amino-5-methyl-7-oxo-6,7-dihydropyrazolo[1,5-a]pyrimidin-3-yl)diazenyl)benzoate]	24.5	25.8	23	25.3	22.8	24	2 ± 0.4 (≈ 5.88 µM)	1	1 ± 0.3 (≈ 2.94 µM)	1	1.5 ± 0.2 (≈ 4.41 µM)	1	2 ± 0.3 (≈ 5.88 µM)	1	0.5	1.5 ± 0.2 (≈ 4.41 µM)	2 ± 0.3 (≈ 5.88 µM)	0.5	296 to 298
CCOC(=O)c1ccc(N=Nc2c(N)nn3c(-c4cccs4)cc(-c4ccccc4)nc23)cc1 [Compound 8a, Ethyl-4-((2-amino-5-phenyl-7-(thiophen-2-yl)pyrazolo[1,5-a]pyrimidin-3-yl)diazenyl)benzoate]	19.7	23.4	20.6	22	21.4	21.6	4 ± 0.3 (≈ 8.54 µM)	1	2 ± 0.2 (≈ 4.27 µM)	1	4 ± 0.4 (≈ 8.54 µM)	1	4 ± 0.2 (≈ 8.54 µM)	2	1	2 ± 0.2 (≈ 4.27 µM)	2 ± 0.3 (≈ 4.27 µM)	1	200 to 202
CCOC(=O)c1ccc(N=Nc2c(N)nn3c(-c4ccco4)cc(-c4ccccc4)nc23)cc1 [Compound 8b, Ethyl 4-((2-amino-7-(furan-2-yl)-5-phenylpyrazolo[1,5-a]pyrimidin-3-yl)diazenyl)benzoate]	16.5	20.1	17.3	19.5	18.7	18.4	4 ± 0.1 (≈ 8.84 µM)	2	4 ± 0.3 (≈ 8.84 µM)	2	8 ± 0.2 (≈ 17.7 µM)	1	8 ± 0.2 (≈ 17.7 µM)	2	1	2 ± 0.3 (≈ 4.42 µM)	4 ± 0.1 (≈ 8.84 µM)	2	212 to 214
CCOC(=O)c1ccc(N=Nc2c(N)nn3c(-c4ccc(Cl)cc4)cc(-c4ccccc4)nc23)cc1 [Compound 8c, Ethyl-4-((2-amino-7-(4-chlorophenyl)-5-phenylpyrazolo[1,5-a]pyrimidin-3-yl)diazenyl)benzoate]	15.2	17.8	15.1	16.1	15.4	16.3	8 ± 0.2 (≈ 16.1 µM)	2	4 ± 0.1 (≈ 8.05 µM)	1	4 ± 0.2 (≈ 8.05 µM)	2	8 ± 0.4 (≈ 16.1 µM)	2	2	4 ± 0.1 (≈ 8.05 µM)	8 ± 0.3 (≈ 16.1 µM)	2	

— article PMC9854762, “Antibiofilm and Anti-Quorum-Sensing Activities of Novel Pyrazole and Pyrazolo[1,5-a]pyrimidine Derivatives as Carbonic Anhydrase I and II Inhibitors: Design, Synthesis, Radiosterilization, and Molecular Docking Studies” (Antibiotics, 2023)
